Here are results for 16 compounds from patent US6492416B1, “4,5-diaryl-3(2H)-furanone derivatives as cyclooxygenase-2 inhibitors” (Pacific Corporation, priority 1999, dated 2002).

One data set deals with T1, COX-2 (Mus musculus, UniProt Q05769).
T1 sequence (Q05769 18-604): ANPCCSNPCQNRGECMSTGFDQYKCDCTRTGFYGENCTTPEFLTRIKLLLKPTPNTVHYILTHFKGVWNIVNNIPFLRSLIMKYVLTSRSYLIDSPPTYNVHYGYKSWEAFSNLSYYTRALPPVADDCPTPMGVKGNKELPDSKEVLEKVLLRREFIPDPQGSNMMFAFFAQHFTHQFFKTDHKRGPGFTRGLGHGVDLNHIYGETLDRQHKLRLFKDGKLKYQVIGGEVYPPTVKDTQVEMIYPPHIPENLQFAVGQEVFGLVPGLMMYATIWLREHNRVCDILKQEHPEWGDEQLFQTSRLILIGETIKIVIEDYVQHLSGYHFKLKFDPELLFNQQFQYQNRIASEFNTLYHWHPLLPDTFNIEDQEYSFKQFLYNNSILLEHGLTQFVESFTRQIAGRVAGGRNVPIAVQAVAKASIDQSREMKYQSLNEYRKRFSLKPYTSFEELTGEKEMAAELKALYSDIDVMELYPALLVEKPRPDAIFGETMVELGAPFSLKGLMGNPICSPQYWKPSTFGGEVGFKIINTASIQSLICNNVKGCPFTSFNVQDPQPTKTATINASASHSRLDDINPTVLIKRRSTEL
The data set can be described thus: Evaluation of COX-2 activity: PGE2 formation in aspirin-treated, LPS-stimulated mouse peritoneal macrophages. It is filed as cell-based. How it is done:
(§1) Evaluation of in vitro COX-2 and COX-1 Activity [J. Pharmacol. Exp. Ther. 166, 96 (1969)]
(§2) The abdominal skin of a C57BL/6 mouse was sanitized with 70% aqueous ethanol, and was removed without damaging the peritoneum. 5 ml of cold phosphate buffer solution (PBS) was then injected into the abdominal cavity. After a minute, the peritoneal fluid containing the macrophages was collected using a syringe and a needle. The collected fluid was centrifuged for 5 min at 1500 rpm to afford pellets of cells. The pellets were then dispersed in the RPMI-1640 culture medium containing 100 units/ml penicillin and 100 μg/ml streptomycin.
The pellets dispersed as above were treated with 500 μM aspirin in order to knock out the activity of the COX-1 enzymes in the cells. The suspension was then diluted with the RPMI-1640 medium to contain 1×10^6 cells/ml. 100 μl of the suspension was added to each well of a 96-well ELISA plate. Then the plate was incubated for 2 hrs at 37° C. under 5% CO2 in order to fix the macrophages onto the plate. The cells, which were not fixed onto the plate were removed by washing with PBS two times. […] The RPMI-1640 medium containing 3% fetal bovine serum albumin was added to each well of the plate, which was followed by stimulation with 10 μg/ml lipopolysaccharide (LPS). […] The LPS-treated suspensions were incubated for 16 hours at 37° C. under 5% CO2 to induce COX-2. Then the culture medium was removed and the macrophages were washed two times with PBS. Then 130 μl RPMI-1640 culture medium was added to each well and the macrophage solutions were incubated at 37° C. for 10 minutes, which was followed by the treatment with 10 μM arachidonic acid and an appropriate amount of compounds of this invention. The plate was incubated for another 10 minutes. The upper solution was collected using a micropipette and was subjected to determination of PGE2 amount in the solution. The amount of PGE2 present in the collected solution was determined either by a known radio-immuno assay or by a known enzyme-immunoassay [Methods in Enzymol. 86, 258 (1982); Methods in Enzymol. 187, 24 (1990)]. The extent of COX-2 inhibition by a compound of the present invention was calculated by assuming, that the amount of PGE2 formed with the treatment of 10 μg/ml arachidonic acid was used is the maximum possible amount of PGE2, and that the amount of PGE2 formed without the treatment of arachidonic acid is the minimum possible amount of PGE2.
(§3) In order to determine IC50 for a compound of this invention, enzymatic activities were measured at multiple concentrations of compounds of this invention around IC50 of the compound. Usually enzymatic activities at 4˜5 concentrations were measured to calculate out IC50 for a compound of this invention.

A further data set addresses T2, COX-1 (Mus musculus, UniProt P22437).
T2 sequence (P22437 27-602): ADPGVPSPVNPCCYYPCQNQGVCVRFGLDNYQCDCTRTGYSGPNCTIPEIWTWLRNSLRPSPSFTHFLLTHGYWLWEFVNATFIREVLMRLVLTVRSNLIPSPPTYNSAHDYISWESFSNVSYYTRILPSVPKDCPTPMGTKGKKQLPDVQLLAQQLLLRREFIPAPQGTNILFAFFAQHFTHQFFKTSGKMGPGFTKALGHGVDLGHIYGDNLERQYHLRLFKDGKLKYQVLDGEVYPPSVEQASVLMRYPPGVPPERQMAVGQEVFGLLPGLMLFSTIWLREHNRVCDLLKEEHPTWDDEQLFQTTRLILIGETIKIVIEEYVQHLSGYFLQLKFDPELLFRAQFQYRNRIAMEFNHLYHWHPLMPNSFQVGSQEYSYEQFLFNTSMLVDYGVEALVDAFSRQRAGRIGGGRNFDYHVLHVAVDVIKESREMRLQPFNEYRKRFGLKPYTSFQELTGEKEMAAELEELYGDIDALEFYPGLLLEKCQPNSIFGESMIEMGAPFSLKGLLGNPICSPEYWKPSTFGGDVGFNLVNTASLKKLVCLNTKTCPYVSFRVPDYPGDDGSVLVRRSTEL
In words: Evaluation of COX-1 activity: PGE2 formation in mouse peritoneal macrophages without aspirin and LPS treatment. It counts as cell-based. How it is done:
as §1, §2
The pellets dispersed as above were treated with 500 μM aspirin in order to knock out the activity of the COX-1 enzymes in the cells. The suspension was then diluted with the RPMI-1640 medium to contain 1×10^6 cells/ml. 100 μl of the suspension was added to each well of a 96-well ELISA plate. Then the plate was incubated for 2 hrs at 37° C. under 5% CO2 in order to fix the macrophages onto the plate. The cells, which were not fixed onto the plate were removed by washing with PBS two times. The purity of macrophages obtained thereby was confirmed by differential counting. The RPMI-1640 medium containing 3% fetal bovine serum albumin was added to each well of the plate, which was followed by stimulation with 10 μg/ml lipopolysaccharide (LPS). Usually 5×10^5 cells/ml were present by this preparation. The LPS-treated suspensions were incubated for 16 hours at 37° C. under 5% CO2 to induce COX-2. Then the culture medium was removed and the macrophages were washed two times with PBS. Then 130 μl RPMI-1640 culture medium was added to each well and the macrophage solutions were incubated at 37° C. for 10 minutes, which was followed by the treatment with 10 μM arachidonic acid and an appropriate amount of compounds of this invention. The plate was incubated for another 10 minutes. The upper solution was collected using a micropipette and was subjected to determination of PGE2 amount in the solution. The amount of PGE2 present in the collected solution was determined either by a known radio-immuno assay or by a known enzyme-immunoassay [Methods in Enzymol. 86, 258 (1982); Methods in Enzymol. 187, 24 (1990)]. The extent of COX-2 inhibition by a compound of the present invention was calculated by assuming, that the amount of PGE2 formed with the treatment of 10 μg/ml arachidonic acid was used is the maximum possible amount of PGE2, and that the amount of PGE2 formed without the treatment of arachidonic acid is the minimum possible amount of PGE2.
In the evaluation of COX-1 inhibitory activity by a compound of the present invention, the same procedures employed for evaluation of COX-2 activity were employed, except omitting the following two steps: 1) the treatment with aspirin for knockout of COX-1 activity and 2) treatment with LPS for induction of COX-2.
as §3

≈ marks a conversion by molar mass, not a printed value.

For orientation: melting point means the temperature of the solid-liquid transition. Turning to `CC(=O)c1cccc(C2=C(c3ccc(S(C)(=O)=O)cc3)OC(C)(C)C2=O)c1` [Example 5, 4-(3-acetylphenyl)-2,2-dimethyl-5-{4-(methylsulfonyl)phenyl}-3(2H)-furanone], the melting point is 189 to 190 °C. For the same compound, the “IC50, μg/ml COX-2” value against COX-2 stood at 0.05 µg/mL (≈ 0.13 µM). The “IC50, μg/ml COX-1” value on COX-1 is 50 µg/mL (≈ 130 µM).
Taken in the same sequence, the figures for `CC1(C)OC(c2ccc(S(C)(=O)=O)cc2)=C(c2cccc([N+](=O)[O-])c2)C1=O` [Example 6, 2,2-Dimethyl-5-{4-(methylsulfonyl)phenyl}-4-(3-nitrophenyl)-3(2H)-furanone] were 158 to 159 °C, 0.05 µg/mL (≈ 0.129 µM) and 5 µg/mL (≈ 12.9 µM).
The corresponding values for `CCC1(C)OC(c2ccc(S(C)(=O)=O)cc2)=C(c2ccccc2)C1=O` (stereo not shown) [Example 31, 2-Ethyl-2-methyl-5-{4-(methylsulfonyl)phenyl}-4-phenyl-3(2H)-furanone] are 115 to 117 °C, 0.2 µg/mL (≈ 0.561 µM) and 20 µg/mL (≈ 56.1 µM).
`CCC1(C)OC(c2ccc(S(N)(=O)=O)cc2)=C(c2ccsc2)C1=O` (stereo not shown) [Example 44, 5-{4-(Aminosulfonyl)phenyl}-2-ethyl-2-methyl-4-(3-thienyl)-3(2H)-furanone] yielded a melting point of 120 to 121 °C. Further, on COX-2, the “IC50, μg/ml COX-2” value stood at 0.101 µg/mL (≈ 0.278 µM). The “IC50, μg/ml COX-1” value on COX-1 is over 10 µg/mL.
The corresponding values for `CCC1(C)OC(c2ccc(S(N)(=O)=O)cc2)=C(c2ccc(C(C)=O)cc2)C1=O` (stereo not shown) [Example 45, 4-(4-Acetylphenyl)-5-{4-(aminosulfonyl)phenyl}-2-ethyl-2-methyl-3(2H)-furanone] are 154 to 155 °C, 0.01 µg/mL (≈ 0.025 µM) and 1.07 µg/mL (≈ 2.68 µM).
Turning to `COc1ccccc1C1=C(c2ccc(S(C)(=O)=O)cc2)OC(C)(C)C1=O` [Example 64], the melting point lay within 109 to 111 °C. Besides, at COX-2, the “IC50, μg/ml COX-2” value turned out to be 0.1 µg/mL (≈ 0.268 µM). For the same compound, the “IC50, μg/ml COX-1” value against COX-1 was found to be 50 µg/mL (≈ 134 µM).
`CC1(C)OC(c2ccc(S(C)(=O)=O)cc2)=C(c2cccc(N)c2)C1=O` [Example 66, 4-(3-aminophenyl)-2,2-dimethyl-5-{4-(methylsulfonyl)phenyl}-3(2H)-furanone] displayed a melting point of 186 to 187 °C. Further, the “IC50, μg/ml COX-2” value against COX-2 amounted to 0.05 µg/mL (≈ 0.14 µM). At COX-1, the “IC50, μg/ml COX-1” value is 50 µg/mL (≈ 140 µM).
The corresponding values for `CC1(C)OC(c2ccc(S(C)(=O)=O)cc2)=C(c2cc(Cl)cc(Cl)c2)C1=O` [Example 75] are 187 to 188 °C, 0.03 µg/mL (≈ 0.0729 µM) and 3 µg/mL (≈ 7.29 µM).
In the case of `C[S+]([O-])c1ccc(C2=C(c3cccc(F)c3)C(=O)C(C)(C)O2)cc1F` (stereo not shown) [Example 290, 2,2-Dimethyl-5-{3-fluoro-4-(methylsulfinyl)phenyl)-4-(3-fluorophenyl)-3(2H)-furanone], the “IC50, μg/ml COX-2” value at COX-2 came to 0.3 µg/mL (≈ 0.828 µM). Moreover, the “IC50, μg/ml COX-1” value on COX-1 was found to be 20 µg/mL (≈ 55.2 µM).
The corresponding values for `CC1(C)OC(c2ccc(S(N)(=O)=O)c(F)c2)=C(c2ccccc2)C1=O` [Example 300, 5-{4(Aminosulfonyl)-3-fluorophenyl}-2,2-dimethyl-4-phenyl-3(2H)-furanone] are 0.03 µg/mL (≈ 0.083 µM) and 20 µg/mL (≈ 55.3 µM).
Consider `CC1(C)OC(c2ccc(S(C)(=O)=O)c(Br)c2)=C(c2cccc(Cl)c2)C1=O` [Example 342], for which, on COX-2, the “IC50, μg/ml COX-2” value was 0.02 µg/mL (≈ 0.0439 µM). In addition, the “IC50, μg/ml COX-1” value against COX-1 was found to be 30 µg/mL (≈ 65.8 µM).
Taken in the same sequence, the figures for `CC1(C)OC(c2ccc(S(C)(=O)=O)c(Br)c2)=C(c2cc(F)ccc2F)C1=O` [Example 344] were 0.08 µg/mL (≈ 0.175 µM) and 200 µg/mL (≈ 437 µM).
The corresponding values for `CC1(C)OC(c2ccc(S(C)(=O)=O)c(Cl)c2)=C(c2ccccc2)C1=O` [Example 357, 5-{3-Chloro-4(methylsulfonyl)phenyl}-2,2-dimethyl-4-phenyl-3(2H)-furanone] are 0.05 µg/mL (≈ 0.133 µM) and 30 µg/mL (≈ 79.6 µM).
The corresponding values for `CCNS(=O)(=O)c1ccc(C2=C(c3ccccc3)C(=O)C(C)(C)O2)cc1Cl` [Example 373, 5-{3-Chloro-4-(N-ethylaminosulfonyl)phenyl}-2,2-dimethyl-4-phenyl-3(2H)-furanone] are 0.3 µg/mL (≈ 0.739 µM) and 600 µg/mL (≈ 1480 µM).
As to `Cc1cc(C2=C(c3cc(F)cc(F)c3)C(=O)C(C)(C)O2)ccc1S(C)(=O)=O` [Example 382, 4-(3,5-Difluorophenyl)-2,2-dimethyl-5-{3-methyl-4-(methylsulfonyl)phenyl}-3(2H)-furanone], the “IC50, μg/ml COX-2” value against COX-2 turned out to be 0.08 µg/mL (≈ 0.204 µM). For the same compound, the “IC50, μg/ml COX-1” value against COX-1 worked out at 200 µg/mL (≈ 510 µM).
Taken in the same sequence, the figures for `Cc1cc(C2=C(c3cc(F)cc(F)c3)C(=O)C(C)(C)O2)ccc1S(N)(=O)=O` [Example 384, 5-{4-(Aminosulfonyl)-3-methylphenyl}-4-(3-difluorophenyl)-2,2-dimethyl-3(2H)-furanone] were 0.08 µg/mL (≈ 0.203 µM) and 30 µg/mL (≈ 76.3 µM).
